Columns and labels:
[1] = test system: HeLa cells infected with scAAV2-EGFP; assay: Transduction efficiency of scAAV2-EGFP in HeLa cells (EGFP expression, fluorescent microscopy); details: for concentration giving maximal increase in transgene expression / maximal increase in transgene expression compared to when no essential metal element was added: HeLa, scAAV2-EGFP, 200 vgs per cell, 48 hours after infection; for maximal increase in transgene expression compared to when no essential metal element was added: at the concentration of maximal increase; for target blood concentration determined from the concentration of greatest improvement of AAV transduction efficiency in vitro: based on FIGS. 1H, 1F, 1C, 1I; for improvement of AAV transduction efficiency: cells infected with rAAV, metal alone or in combination (FIG. 2B)
Experimental: In an initial set of experiments, HeLa cells were infected with self-complementary AAV2 (scAAV2) comprising nucleic acid encoding EGFP (scAAV2-EGFP) at a multiplicity of infection of 200 viral genomes (vgs) per cell. Thereafter, various essential metal elements were added to the cell cultures at different concentrations. Transduction efficiency was measured 48 hours after infection, by evaluating the expression of EGFP using fluorescent microscopy. Images were analyzed using ImageJ software.

HeLa cells = assay: Zn2+-induced cytotoxicity in HeLa cells; assay type: cell-based
Huh7 cells [2] = assay: Transgene expression of rAAV2-mCherry in Huh7 cells with zinc; assay type: cell-based, human; details: 15 μg/ml of Zn2+
Excerpt: (§1) Therefore, targeting ZIP14-deficient HCC tumors would be ideal for Zn2+ infusions due to their tendency to prevent zinc uptake, and therefore, increase the level of environmental Zn2+. To test this hypothesis, Huh7 cells were either mock-transfected, or transfected with a recombinant plasmid containing a CMV promoter-driven ZIP14-EGFP fusion protein, and were transduced with scAAV2-mCherry vectors under identical conditions.

Huh7 cells [3] = assay: Zn2+-induced cytotoxicity in Huh7 cells (mock-transfected); assay type: cell-based, human
[4] = test system: ZIP14 over-expressing Huh7 cells; assay: Zn2+ effects in Huh7 cells over-expressing ZIP14, transduced with scAAV2-mCherry; assay type: cell-based, human
Excerpt: The effect of metal ion (e.g., zinc) on the transduction efficiency of AAV vectors may be due to free floating zinc, because the increase in transduction occurs when the cell has taken up zinc to the point where extracellular accumulation occurs. […] ZIP14 is a metal ion transporter that primarily transports zinc into cells.
as §1

[5] = test system: Huh7 cells infected with scAAV3-EGFP; assay: Percentage of Huh7 cells transduced by scAAV3-EGFP (flow cytometry); assay type: cell-based, human; details: different concentrations, flow cytometry (FIG. 4)
Experimental: Huh7 cells were infected with self-complementary AAV3 (scAAV3) comprising nucleic acid encoding EGFP (scAAV3-EGFP). Thereafter, zinc chloride was added to the cell cultures at different concentrations. Transduction efficiency was measured by evaluating the expression of EGFP using flow cytometry.

CCK8 cells = assay: AAV2-mCherry transduction efficiency versus cell viability with varying zinc; assay type: cell-based; details: varying concentrations of zinc (FIG. 5)
Excerpt: FIG. 5 provides an overlap of AAV transduction efficiency data and cell viability data from experiments in which CCK8 cells were transduced with AAV2 comprising mCherry encoding nucleic acid and treated with varying concentrations of zinc. […] FIGS. 6, 7, and 8 show similar data for HEK293 cells, HeLa cells, and HepG2 cells.

HepG2 cells = assay: Factor IX expression in HepG2 cells infected with AAV3-Factor IX (Western blot); assay type: cell-based; details: rAAV3-Factor IX, 20 μg/ml, 3h post infection
Experimental: HepG2 cells, which express factor IX to a lower degree compared to other cell types, were cultured. They were then either infected with rAAV3 particles carrying nucleic acid encoding Factor IX, or infected with rAAV3 particles carrying nucleic acid encoding Factor IX and treated with 20 μg/ml of ZnCl2. When level of Factor IX expressed in the cells was measured using Western blot analysis after the cells there harvest 3h post infection.

Row | SMILES | concentration giving maximal increase in transgene expression [1] | maximal increase in transgene expression compared to when no essential metal element was added [1] | target blood concentration determined from the concentration of greatest improvement of AAV transduction efficiency in vitro [1] | improvement of AAV transduction efficiency [1] | concentration inducing significant cytotoxicity (HeLa cells) | increase in the transgene expression (Huh7 cells [2]) | concentrations found to be cytotoxic (Huh7 cells [3]; Huh7 cells) | Zn2+-induced cytotoxicity (Huh7 cells [3]; mock-treated Huh7 cells, final concentration of 20 μg/ml) | zinc-induced improvement of rAAV transduction efficiency ([4]; Huh7 cells transfected with a ZIP14 gene) | Zn2+-induced cytotoxicity ([4]; ZIP14 over-expressing Huh7 cells, final concentration of 20 μg/ml) | percentage of cells transduced by the scAAV3-EGFP vector [5] | rAAV transduction efficiency versus cell viability (CCK8 cells) | level of Factor IX expression compared to cells not treated with metal elements (HepG2 cells) | increase in transgene expression ([1]; HeLa cells, final concentration of 30 μg/ml)
1 | [Cl][Ni][Cl] [nickel chloride] | 20 µg/mL | ~3 fold | 200 µg/mL | ~2 fold |  |  |  |  |  |  |  |  |  | 
2 | [Cl-].[Cl-].[Mg+2] [magnesium chloride] | approximately 100 μg/ml | ~2 fold | 100 µg/mL |  |  |  |  |  |  |  |  |  |  | 
3 | [Cl][Co][Cl] [cobalt chloride] | 25 µg/mL | ~2 fold | 20 to 30 µg/mL | ~2 fold |  |  |  |  |  |  |  |  |  | 
4 | [Cl-].[Cl-].[Zn+2] [zinc chloride] | 30 µg/mL | ~8 fold | 30 µg/mL | ~8 fold | exceeding 30 μg/ml | ~7 fold | exceeding 20 μg/ml | not mock-treated Huh7 cells, evaded Zn2+-induced cytotoxicity | reduction in the zinc-induced improvement of rAAV transduction efficiency | evaded Zn2+-induced cytotoxicity | increases with increasing concentration of zinc chloride | drop in rAAV transduction efficiency correlates with cell viability | greater level of Factor IX expression | ~8 fold
